Legend:
SIRT1 [1] = biological target: T1, SIRT1 (Homo sapiens, UniProt Q96EB6); assay: TAMRA based mass spectrometry assay of SIRT1 deacetylase activation; type: biochemical; conditions: TAMRA peptide substrate; for TAMRA EC1.5 (μM): concentration that results in 150% activation of SIRT1; for TAMRA % Fold Act: percent maximum fold activation relative to control (100%)
T1 sequence (Q96EB6 1-747): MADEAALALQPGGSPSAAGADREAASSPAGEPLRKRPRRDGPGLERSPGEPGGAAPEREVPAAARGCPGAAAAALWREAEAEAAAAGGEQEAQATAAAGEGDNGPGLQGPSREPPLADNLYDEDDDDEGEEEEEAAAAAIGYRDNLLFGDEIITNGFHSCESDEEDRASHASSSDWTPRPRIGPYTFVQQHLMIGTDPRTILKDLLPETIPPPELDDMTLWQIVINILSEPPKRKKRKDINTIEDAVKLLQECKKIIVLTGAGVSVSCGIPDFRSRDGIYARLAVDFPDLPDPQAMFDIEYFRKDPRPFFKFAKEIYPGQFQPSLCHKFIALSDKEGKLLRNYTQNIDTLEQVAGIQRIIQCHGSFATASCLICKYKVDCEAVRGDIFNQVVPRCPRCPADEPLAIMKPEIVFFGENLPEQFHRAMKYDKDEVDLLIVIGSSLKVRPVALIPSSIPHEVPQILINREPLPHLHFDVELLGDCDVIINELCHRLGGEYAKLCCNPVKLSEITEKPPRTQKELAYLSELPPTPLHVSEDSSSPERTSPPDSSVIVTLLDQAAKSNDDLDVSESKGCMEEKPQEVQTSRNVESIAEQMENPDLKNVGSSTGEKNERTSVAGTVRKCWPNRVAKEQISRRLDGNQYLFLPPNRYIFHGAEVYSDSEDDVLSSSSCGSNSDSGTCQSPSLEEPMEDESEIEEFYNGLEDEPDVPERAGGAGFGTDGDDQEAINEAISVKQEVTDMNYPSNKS
Summary of the method: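 E. coli-expressed N-terminal His-tagged human SIRT1 (10 nM) was incubated 25 min at 25 °C, pH 8 Tris-acetate buffer, with 0.5 μM TAMRA-labelled p53-derived acetyl-peptide, 120 μM NAD+ and varying compound; formic acid stop, mass-spec quantitation of deacetylated product vs DMSO controls. EC1.5 = concentration giving 150% activation.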

SIRT1 [2] = biological target: T1, SIRT1; assay: Trp mass spectrometry assay of SIRT1 deacetylase activation; type: biochemical; conditions: Trp peptide substrate; for TRP EC1.5 (μM): concentration that results in 150% activation of SIRT1; for TRP % Fold Act: percent maximum fold activation relative to control (100%)
Summary of the method: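 His-tagged human SIRT1 (E. coli-expressed, 10 nM) was incubated with 0.5 μM Ac-RHKK(Ac)W-NH2 peptide and 120 μM βNAD+ for 25 min at 25 °C in HEPES pH 7.5, 1500 mM NaCl, with varying compound; formic acid quench. OAADPR or deacetylated peptide was quantified by mass spectrometry against DMSO control. EC1.5 (150% activation) and percent maximum activation were derived.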

TAMRA EC1.5 (μM) (SIRT1 [1]) | TAMRA % Fold Act (SIRT1 [1]) | TRP EC1.5 (μM) (SIRT1 [2]) | TRP % Fold Act (SIRT1 [2]) | SMILES
C (EC1.5>25 μM) | B (Fold Activation<350%) | C (EC1.5>25 μM) | B (Fold Activation<350%) | O=C(Nc1cccc(N2CCOCC2)n1)c1ccnc2cc(-c3cccc(C(F)(F)F)c3)nn12 [Compound 90]
C (EC1.5>25 μM) | B (Fold Activation<350%) | C (EC1.5>25 μM) | B (Fold Activation<350%) | O=C(Nc1cccc(CN2CCOCC2)n1)c1ccnc2cc(-c3cccc(C(F)(F)F)c3)nn12 [Compound 91]
C (EC1.5>25 μM) | B (Fold Activation<350%) | C (EC1.5>25 μM) | B (Fold Activation<350%) | O=C(Nc1ccncn1)c1ccnc2cc(-c3cccc(C(F)(F)F)c3)nn12 [Compound 92]
B (EC1.5 1−25 μM) | B (Fold Activation<350%) | C (EC1.5>25 μM) | B (Fold Activation<350%) | O=C(Nc1ccnc2cc(-c3ccccc3C(F)(F)F)nn12)c1nccs1 [Compound 93]
A (EC1.5<1 μM) | A (Fold activation≧350%) | C (EC1.5>25 μM) | B (Fold Activation<350%) | Cn1cnc(C(=O)Nc2ccnc3cc(-c4ccccc4C(F)(F)F)nn23)c1 [Compound 94]
C (EC1.5>25 μM) | B (Fold Activation<350%) | C (EC1.5>25 μM) | B (Fold Activation<350%) | O=C(Nc1ccnc2cc(-c3cccc(C(F)(F)F)c3)nn12)c1nccs1 [Compound 95]
B (EC1.5 1−25 μM) | B (Fold Activation<350%) | C (EC1.5>25 μM) | B (Fold Activation<350%) | Cn1cnc(C(=O)Nc2ccnc3cc(-c4cccc(C(F)(F)F)c4)nn23)c1 [Compound 96]
C (EC1.5>25 μM) | B (Fold Activation<350%) | C (EC1.5>25 μM) | B (Fold Activation<350%) | O=C(Nc1ccnc2cc(-c3cccc(C(F)(F)F)c3)nn12)c1ccncn1 [Compound 97]
C (EC1.5>25 μM) | B (Fold Activation<350%) | C (EC1.5>25 μM) | B (Fold Activation<350%) | O=C(Nc1ccnc2cc(-c3cccc(C(F)(F)F)c3)nn12)c1cccc(N2CCC2)n1 [Compound 98]
C (EC1.5>25 μM) | B (Fold Activation<350%) | C (EC1.5>25 μM) | B (Fold Activation<350%) | O=C(Nc1cnccn1)c1ccnc2cc(-c3ccccc3C(F)(F)F)nn12 [Compound 99]
B (EC1.5 1−25 μM) | A (Fold activation≧350%) | B (EC1.5 1−25 μM) | B (Fold Activation<350%) | O=C(Nc1ncccn1)c1ccnc2cc(-c3ccccc3C(F)(F)F)nn12 [Compound 100]
C (EC1.5>25 μM) | B (Fold Activation<350%) | B (EC1.5 1−25 μM) | B (Fold Activation<350%) | O=C(Nc1ncccn1)c1ccnc2cc(-c3cccc(C(F)(F)F)c3)nn12 [Compound 101]
C (EC1.5>25 μM) | B (Fold Activation<350%) | C (EC1.5>25 μM) | B (Fold Activation<350%) | O=C(Nc1cnccn1)c1ccnc2cc(-c3cccc(C(F)(F)F)c3)nn12 [Compound 102]
B (EC1.5 1−25 μM) | B (Fold Activation<350%) | C (EC1.5>25 μM) | B (Fold Activation<350%) | O=C(Nc1ccnc2cc(-c3ccccc3C(F)(F)F)nn12)c1cccnc1 [Compound 103]
C (EC1.5>25 μM) | B (Fold Activation<350%) | C (EC1.5>25 μM) | B (Fold Activation<350%) | O=C(Nc1ccnc2cc(-c3ccccc3C(F)(F)F)nn12)c1cncnc1 [Compound 104]
A (EC1.5<1 μM) | A (Fold activation≧350%) | C (EC1.5>25 μM) | B (Fold Activation<350%) | Cc1ccnc(C(=O)Nc2ccnc3cc(-c4ccccc4C(F)(F)F)nn23)c1 [Compound 105]
A (EC1.5<1 μM) | A (Fold activation≧350%) | C (EC1.5>25 μM) | B (Fold Activation<350%) | Cc1cc(C)nc(C(=O)Nc2ccnc3cc(-c4ccccc4C(F)(F)F)nn23)c1 [Compound 106]
A (EC1.5<1 μM) | A (Fold activation≧350%) | C (EC1.5>25 μM) | B (Fold Activation<350%) | Cc1cnc(C(=O)Nc2ccnc3cc(-c4ccccc4C(F)(F)F)nn23)cn1 [Compound 108]
A (EC1.5<1 μM) | A (Fold activation≧350%) | C (EC1.5>25 μM) | B (Fold Activation<350%) | Cc1cccc(C(=O)Nc2ccnc3cc(-c4ccccc4C(F)(F)F)nn23)n1 [Compound 109]
B (EC1.5 1−25 μM) | A (Fold activation≧350%) | B (EC1.5 1−25 μM) | B (Fold Activation<350%) | O=C(Nc1ccnc2cc(-c3ccccc3C(F)(F)F)nn12)c1ccn[nH]1 [Compound 110]
A (EC1.5<1 μM) | A (Fold activation≧350%) | C (EC1.5>25 μM) | B (Fold Activation<350%) | COc1cccc(C(=O)Nc2ccnc3cc(-c4ccccc4C(F)(F)F)nn23)n1 [Compound 111]
A (EC1.5<1 μM) | A (Fold activation≧350%) | C (EC1.5>25 μM) | B (Fold Activation<350%) | Cc1cccnc1C(=O)Nc1ccnc2cc(-c3ccccc3C(F)(F)F)nn12 [Compound 112]
A (EC1.5<1 μM) | A (Fold activation≧350%) | B (EC1.5 1−25 μM) | B (Fold Activation<350%) | O=C(Nc1ccnc2cc(-c3ccccc3C(F)(F)F)nn12)c1ncccc1F [Compound 113]
A (EC1.5<1 μM) | A (Fold activation≧350%) | A (EC1.5<1 μM) | A (Fold activation≧350%) | O=C(Nc1ccnc2cc(-c3ccccc3C(F)(F)F)nn12)c1cccc(OC[C@H](O)CO)n1 [Compound 114]
A (EC1.5<1 μM) | A (Fold activation≧350%) | A (EC1.5<1 μM) | A (Fold activation≧350%) | O=C(Nc1ccnc2cc(-c3ccccc3C(F)(F)F)nn12)c1cccc(OC[C@@H](O)CO)n1 [Compound 115]

Reference: patent US20140288052A1, “SUBSTITUTED BICYCLIC AZA-HETEROCYCLES AND ANALOGUES AS SIRTUIN MODULATORS” (GlaxoSmithKline, LLC, priority 2011, published 2014)
